Data: patent US20240424019A1, “SHP1 MODIFIED DENDRITIC CELLS AND EXTRACELLULAR VESICLES DERIVED THEREFROM AND ASSOCIATED METHODS” (BOARD OF REGENTS, THE UNIVERSITY OF TEXAS SYSTEM, priority 2021, published 2024)

Columns and labels:
CD8+ OT-1 T cells = assay: DC-EV in vitro assays (H-2Kb-SIINFEKL on EVs, binding to CD8+ T cells, OT-1 proliferation, IFN-γ ELISA); type: cell-based, mouse; conditions: EVs of OVA-loaded BMDCs treated with VitE vs vehicle
Method: To generate DC-EVs, BMDCs or DC2.4 were cultured at a density of 2×10^6 cells/ml and treated with LPS (100 ng/ml) for 18 h and then treated with OVA protein (250 μg/ml) for 24 hours in DCs culture media supplemented with 10% exosome depleted FBS, which is prepared by the first ultracentrifugation at 100,000 g for 16 h, and then filtering using a 100 nm filter. Supernatants were collected from 48-72 h DCs cultures and EVs were purified by a standard differential ultracentrifugation. […] The purified exosomes were then analyzed and used for experimental procedures. […]
For FACS analysis, exosomes were conjugated with 4 μm aldehyde/sulfate latex beads (Cat. A37304, Thermo Fisher) by overnight incubation. The EVs-bound beads were incubated with glycine to block remaining binding sites and surface expression of SIINFEKL-loaded MHC-I complexes on DC-EVs was determined by staining with anti-mouse H-2K^b bound to SIINFEKL antibody. […]
To verify the physical interactions between DC-EVs and CD8^+ T cells, purified DC-EVs were stained with DiO (Cat. V22889, Thermo Fisher) in 100 μl PBS, and then washed with 10 ml PBS and pelleted by ultracentrifugation. For cell treatment, DC-EVs (10 μg/ml) (unless specified otherwise) were used on the basis of protein concentration determined by a BCA Protein Assay Kit (Pierce). […] After 72 h, the T-cell proliferation was analyzed by FACS. […]

4T1 tumors = assay: Orthotopic 4T1 TNBC tumor model; type: in vivo, mouse
Method: FIG. 6A: Diagram of the experimental paradigm (top) and tumor growth curves (bottom) of orthotopic B16-GMCSF tumor in mice vaccinated with or without GVAX (s.c. at day 1, 4, 7), then treated with vehicle or VitE (50 mg/kg/day daily by oral gavage administration from day 4 to day 20) (n=6/group). FIG. 6B: Tumor weight of 4T1 tumors from mice treated with vehicle. GVAX, ICT (200 μg/mouse anti-PDI and 100 μg/mouse anti-CTLA4 by i.p. at day 7, 10, 13), or GVAX+ICT in combination with vehicle or VitE (50 mg/kg/day daily by oral gavage administration from day 4 to day 25) (n=4) at day 25 after tumor inoculation. FIG. 6C: Flow cytometric analysis (left) and quantification (right) of gp70 tetramer+CD8^+ T cells in 4T1 tumors at day 14 post-implantation with indicated treatments (n=5/group). FIG. 6D: Kaplan-Meier survival curve of 4T1 tumor-bearing mice treated with vehicle, low dosage of Doxorubicin (Dox, 5 mg/kg by i.v.). ICT (200 μg/mouse anti-PD1 and 100 μg/mouse anti-CTLA4 by i.p. at day 7, 10, 13). or Dox+ICT along with vehicle or VitE (n=10). FIG. 6E: Measurement of maximal tumor diameter in HY1936 KPC tumor-bearing mice treated with gemcitabine (GEM, 25 mg/kg by i.p.) and ICT (anti-PDI/anti-CTLA4) along with vehicle or VitE (n=5). FIG. 6F: Kaplan-Meier survival curve of HY19636 KPC tumor-bearing mice treated with vehicle, GEM (gemcitabine, 25 mg/kg by i.p.), GEM+ICT (anti-PDI/anti-CTLA4) plus vehicle or VitE (n=6). Error bars, s.e.m. ns, no significant. *P<0.05. ***P<0.001, ****P<0.0001.
Syngeneic orthotopic PDAC tumors were established by surgical implantation.
Control groups received vehicle (PBS) without the active product.
Where indicated, mice were vaccinated subcutaneously on their contralateral flank with either PBS or 1.0×10^6 35 Gy-irradiated GM-CSF-secreting B16 cells or GM-CSF-secreting 4T1 cells (GVAX) on days 1, 4, and 7 post-tumor injections.
For chemo combination treatment, HY19636 KPC tumor-bearing mice were treated with gemcitabine (GEM) at 25 mg/kg body weight by i.p. injection once a week from day 7 and 4T1 TNBC tumor-bearing mice were given with doxorubicin (Dox, 5 mg/kg body weight) by i.v. once a week from day 10. The chemotherapeutic doses and schedules used in this study are below or within the range of the concentrations used in the clinic after converting drug doses between species.

Scarb1-/-DCs = assay: BMDCs from Scarb1-/- versus wild-type mice; type: cell-based, mouse
Text: VitE can enter enterocytes via the SCARB1 receptor, and SCARB1 facilitates the uptake of cholesteryl esters from high-density lipoproteins. […] To determine whether SCARB1 is required for VitE-induced DC activation, we generated BMDCs from Scarb1-/-versus wild-type mice. […] Taken together, VitE enters DCs via SCARB1 and binds SHP1 to inhibit pSHP1, leading to DC activation, which increases antitumor T-cell immunity (data not shown; see Yuan et al. 2022, FIG. 4I; see also U.S. Provisional Application No. 63/252,721, FIG. 4D).

RAB34 = assay: Immunoblot of Rab34 proteins in BMDCs; type: cell-based, mouse; conditions: VitE vs vehicle, 48 hr
[1] = doxorubicin+ICT+VitE vs doxorubicin+ICT

SMILES: Cc1c(C)c2c(c(C)c1O)CC[C@@](C)(CCC[C@H](C)CCC[C@H](C)CCCC(C)C)O2 [VitE, D-α-Tocopherol]
- level of H-2Kb-SIINFEKL complexes on DC-EVs (CD8+ OT-1 T cells): increased the level of H-2Kb-SIINFEKL complexes on DC-EVs
- antitumor effect (tumor weight) (4T1 tumors; VitE 50 mg/kg/day combined with GVAX+ICT): significantly enhanced the antitumor effect
- gp70 tetramer-specific CD8+ T cells in tumor (4T1 tumors; VitE added to doxorubicin+ICT): increased the infiltration of tumor-infiltrating gp70) tetramer-specific CD8^+ T cells
- survival (4T1 tumors; [1]): substantially prolonged the survival
- tumor growth and lung metastasis (4T1 tumors; [1]): inhibited tumor growth and lung metastasis
- pY564-SHP1 in Scarb1-/- DCs (Scarb1-/-DCs; VitE treatment, unlike wild-type DCs): failed to inhibit pY564-SHP1
- proliferation of cocultured T cells (Scarb1-/-DCs; VitE-treated Scarb1-/- DCs, in contrast to wild-type DCs): did not induce proliferation of cocultured T cells
- RAB34 expression in BMDCs (RAB34): increased total RAB34 expression
